Tests used:
[1] = system: Glomerella lagenarium (Colletotrichum lagenarium); assay: Glomerella lagenarium (Colletotrichum lagenarium) / liquid culture (anthracnose); format: cell-based; conditions: Colletotrichum orbiculare; 200 ppm in the formulation; PDB broth, 24° C., photometric, 3 to 4 days after application; vs untreated control; read-out: disease control (inhibition of growth)
Experimental: (§1) Glomerella lagenarium (Colletotrichum lagenarium)/Liquid Culture (Anthracnose) Conidia of the fungus from cryogenic storage are directly mixed into nutrient broth (PDB potato dextrose broth). After placing a (DMSO) solution of test compound into a microtiter plate (96-well format), the nutrient broth containing the fungal spores is added. The test plates are incubated at 24° C. and the inhibition of growth is measured photometrically 3 to 4 days after application.

[2] = system: Monographella nivalis (Microdochium nivale); assay: Monographella nivalis (Microdochium nivale) / liquid culture (foot rot cereals); format: cell-based; conditions: 200 ppm in the formulation, PDB broth, 24° C., photometric, 4-5 days after application, vs untreated control, read-out: disease control (inhibition of growth)
Experimental: as §1, with “Monographella nivalis (Microdochium nivale)/Liquid” for “Glomerella lagenarium (Colletotrichum lagenarium)/Liquid”, “(Foot Rot Cereals)” for “(Anthracnose)”, “determined” for “measured”, “4-5” for “3 to 4”

[3] = system: Mycosphaerella graminicola (Septoria tritici); assay: Mycosphaerella graminicola (Septoria tritici) / liquid culture (Septoria blotch); format: cell-based; conditions: Zymoseptoria tritici; 200 ppm in the formulation; PDB broth, 24° C., photometric, 4 to 5 days after application; vs untreated control; read-out: disease control (inhibition of growth)
Experimental: (§2) Mycosphaerella graminicola (Septoria tritici)/Liquid Culture (Septoria Blotch) Conidia of the fungus from cryogenic storage are directly mixed into nutrient broth (PDB potato dextrose broth). After placing a (DMSO) solution of test compound into a microtiter plate (96-well format), the nutrient broth containing the fungal spores is added. The test plates are incubated at 24° C. and the inhibition of growth is determined photometrically 4 to 5 days after application.

[4] = system: Phaeosphaeria nodorum (Setoria nodorum); assay: Phaeosphaeria nodorum (Septoria nodorum) / wheat / leaf disc preventative (glume blotch); format: in vivo; conditions: Parastagonospora nodorum, foliar, 200 ppm in the formulation, wheat leaf segments cv. Kanzler, 5-7 days after application, vs untreated control, read-out: disease control
Experimental: Phaeosphaeria nodorum (Setoria nodorum)/Wheat/Leaf Disc Preventative (Glume Blotch) Wheat leaf segments cv. Kanzler are placed on agar in a multiwell plate (24-well format) and sprayed with the formulated test compound diluted in water. The leaf disks are inoculated with a spore suspension of the fungus 2 days after application. The inoculated test leaf disks are incubated at 20° C. and 75% rh under a light regime of 12 h light/12 h darkness in a climate cabinet and the activity of a compound is assessed as percent disease control compared to untreated when an appropriate level of disease damage appears in untreated check leaf disks (5-7 days after application).

[5] = system: Puccinia recondita f. so. tritici; assay: Puccinia recondita f. sp. tritici / wheat / leaf disc preventative (brown rust); format: in vivo; conditions: foliar, 200 ppm in the formulation, wheat leaf segments cv. Kanzler, 7-9 days after application, vs untreated control, read-out: disease control
Experimental: Puccinia recondita f. so. tritici/Wheat/Leaf Disc Preventative (Brown Rust)
Wheat leaf segments cv. Kanzler are placed on agar in multiwell plates (24-well format) and sprayed with the formulated test compound diluted in water. The leaf disks are inoculated with a spore suspension of the fungus 1 day after application. The inoculated leaf segments are incubated at 19° C. and 75% rh under a light regime of 12 h light/12 h darkness in a climate cabinet and the activity of a compound is assessed as percent disease control compared to untreated when an appropriate level of disease damage appears in untreated check leaf segments (7-9 days after application).

[6] = system: Mycosphaerella arachidis (Cercospora arachidicola); assay: Mycosphaerella arachidis (Cercospora arachidicola) / liquid culture (early leaf spot); format: cell-based; conditions: 200 ppm in the formulation, PDB broth, 24° C., photometric, 4-5 days after application, vs untreated control, read-out: disease control (inhibition of growth)
Experimental: as §2, with “arachidis (Cercospora arachidicola)/Liquid” for “graminicola (Septoria tritici)/Liquid”, “(Early Leaf Soot)” for “(Septoria Blotch)”, “4-5” for “4 to 5”

[7] = system: Botryotinia fuckeliana (Botrytis cinerea); assay: Botryotinia fuckeliana (Botrytis cinerea) liquid culture (gray mould); format: cell-based; conditions: 200 ppm in the formulation, Vogels broth, 24° C., photometric, 3-4 days after application, vs untreated control, read-out: disease control (inhibition of growth)
Experimental: as §2, with “Botryotinia fuckeliana (Botrytis cinerea) Liquid” for “Mycosphaerella graminicola (Septoria tritici)/Liquid”, “(Gray Mould)” for “(Septoria Blotch)”, “(Vogels” for “(PDB potato dextrose”, “3-4” for “4 to 5”

COc1ccnc(C(=O)N[C@@H](C)C(=O)OC(C)C(C)n2ccc3c(Br)ccc(F)c32)c1O (stereo partly drawn) [I.ab.001, [2-(4-bromo-7-fluoro-indol-1-yl)-1-methyl-propyl] (2S)-2-[(3-hydroxy-4-methoxy-pyridine-2-carbonyl)amino]propanoate]
≥ 80%: inhibition at 200 ppm [1] | inhibition at 200 ppm [2] | inhibition at 200 ppm [3] | pest or weed control at 200 ppm [4] | pest or weed control at 200 ppm [5] | inhibition at 200 ppm [6] | inhibition at 200 ppm [7]

COc1ccnc(C(=O)N[C@@H](C)C(=O)OC(C)C(C)n2ncc3ccccc32)c1O (stereo partly drawn) [I.ae.001, (2-indazol-1-yl-1-methyl-propyl) (2S)-2-[(3-hydroxy-4-methoxy-pyridine-2-carbonyl)amino]propanoate]
≥ 80%: inhibition at 200 ppm [3] | pest or weed control at 200 ppm [5] | inhibition at 200 ppm [6]

COc1ccnc(C(=O)N[C@@H](C)C(=O)OC(C)C(C)n2cc(C#N)c(-c3cccc(Cl)c3Cl)c2)c1O (stereo partly drawn) [I.ag.001, [2-[3-cyano-4-(2,3-dichlorophenyl)pyrrol-1-yl]-1-methyl-propyl] (2S)-2-[(3-hydroxy-4-methoxy-pyridine-2-carbonyl)amino] propanoate]
≥ 80%: inhibition at 200 ppm [1] | inhibition at 200 ppm [2] | inhibition at 200 ppm [3] | inhibition at 200 ppm [7]

COc1ccnc(C(=O)N[C@@H](C)C(=O)OC(C)C(C)n2cc(C#N)c(-c3ccccc3Cl)c2)c1O (stereo partly drawn) [I.ah.001, [2-[3-(2-chlorophenyl)-4-cyano-pyrrol-1-yl]-1-methyl-propyl] (2S)-2-[(3-hydroxy-4-methoxy-pyridine-2-carbonyl)amino]propanoate]
≥ 80%: inhibition at 200 ppm [1] | inhibition at 200 ppm [2] | inhibition at 200 ppm [3] | inhibition at 200 ppm [6] | inhibition at 200 ppm [7]

COc1ccnc(C(=O)N[C@@H](C)C(=O)OC(C)C(C)c2sc3ccc(Cl)cc3c2C)c1O (stereo partly drawn) [I.at.001, [2-(5-chloro-3-methyl-benzothiophen-2-yl)-1-methyl-propyl] (2S)-2-[(3-hydroxy-4-methoxy-pyridine-2-carbonyl)amino]propanoate]
≥ 80%: inhibition at 200 ppm [1] | inhibition at 200 ppm [2] | inhibition at 200 ppm [3] | pest or weed control at 200 ppm [4] | pest or weed control at 200 ppm [5] | inhibition at 200 ppm [6]

COc1ccnc(C(=O)N[C@@H](C)C(=O)OC(C)C(C)n2ccc3cc(Cl)c(Cl)cc32)c1O (stereo partly drawn) [I.au.001, [2-(5,6-dichloroindol-1-yl)-1-methyl-propyl] (2S)-2-[(3-hydroxy-4-methoxy-pyridine-2-carbonyl)amino] propanoate]
≥ 80%: inhibition at 200 ppm [1] | inhibition at 200 ppm [2] | inhibition at 200 ppm [3] | pest or weed control at 200 ppm [5] | inhibition at 200 ppm [6] | inhibition at 200 ppm [7]

COc1ccnc(C(=O)N[C@@H](C)C(=O)OC(C)C(C)n2ccc3cc(F)c(Cl)cc32)c1O (stereo partly drawn) [I.av.001, [2-(6-chloro-5-fluoro-indol-1-yl)-1-methyl-propyl] (2S)-2-[(3-hydroxy-4-methoxy-pyridine-2-carbonyl)amino]propanoate]
≥ 80%: inhibition at 200 ppm [1] | inhibition at 200 ppm [3] | pest or weed control at 200 ppm [5] | inhibition at 200 ppm [6]

COc1ccnc(C(=O)N[C@@H](C)C(=O)OC(C)C(C)n2ccc3cc(F)c(Br)cc32)c1O (stereo partly drawn) [I.aw.001, [2-(6-bromo-5-fluoro-indol-1-yl)-1-methyl-propyl] (2S)-2-[(3-hydroxy-4-methoxy-pyridine-2-carbonyl)amino]propanoate]
≥ 80%: inhibition at 200 ppm [1] | inhibition at 200 ppm [3] | pest or weed control at 200 ppm [5] | inhibition at 200 ppm [6]

COc1ccnc(C(=O)N[C@@H](C)C(=O)OC(C)C(C)n2ccc3cc(F)cc(F)c32)c1O (stereo partly drawn) [I.ay.001, [2-(5,7-difluoroindol-1-yl)-1-methyl-propyl] (2S)-2-[(3-hydroxy-4-methoxy-pyridine-2-carbonyl)amino] propanoate]
≥ 80%: inhibition at 200 ppm [1] | inhibition at 200 ppm [2] | inhibition at 200 ppm [3] | pest or weed control at 200 ppm [4] | pest or weed control at 200 ppm [5] | inhibition at 200 ppm [6]

COc1ccnc(C(=O)N[C@@H](C)C(=O)OC(C)C(C)n2ccc3c(Cl)ccc(Cl)c32)c1OC(C)=O (stereo partly drawn) [I.bb.041, [2-(4,7-dichloroindol-1-yl)-1-methyl-propyl] (2S)-2-[(3-acetoxy-4-methoxy-pyridine-2-carbonyl)amino] propanoate]
≥ 80%: inhibition at 200 ppm [1] | inhibition at 200 ppm [2] | inhibition at 200 ppm [3] | pest or weed control at 200 ppm [4] | pest or weed control at 200 ppm [5] | inhibition at 200 ppm [6]

COc1ccnc(C(=O)N[C@@H](C)C(=O)OC(C)C(C)c2ccc3ccccc3n2)c1O (stereo partly drawn) [I.s.001, [1-methyl-2-(2-quinolyl)propyl] (2S)-2-[(3-hydroxy-4-methoxy-pyridine-2-carbonyl)amino]propanoate]
≥ 80%: inhibition at 200 ppm [1] | inhibition at 200 ppm [2] | inhibition at 200 ppm [3] | pest or weed control at 200 ppm [5] | inhibition at 200 ppm [6] | inhibition at 200 ppm [7]

COc1ccnc(C(=O)N[C@@H](C)C(=O)OC(C)C(C)n2ccc3ccc(F)cc32)c1O (stereo partly drawn) [I.v.001, [2-(6-fluoroindol-1-yl)-1-methyl-propyl] (2S)-2-[(3-hydroxy-4-methoxy-pyridine-2-carbonyl)amino]propanoate]
≥ 80%: inhibition at 200 ppm [1] | inhibition at 200 ppm [2] | inhibition at 200 ppm [3] | pest or weed control at 200 ppm [5] | inhibition at 200 ppm [6] | inhibition at 200 ppm [7]

COc1ccnc(C(=O)N[C@@H](C)C(=O)OC(C)C(C)n2ccc3cc(F)ccc32)c1O (stereo partly drawn) [I.w.001, [2-(5-fluoroindol-1-yl)-1-methyl-propyl] (2S)-2-[(3-hydroxy-4-methoxy-pyridine-2-carbonyl)amino]propanoate]
≥ 80%: inhibition at 200 ppm [1] | inhibition at 200 ppm [2] | inhibition at 200 ppm [3] | pest or weed control at 200 ppm [5] | inhibition at 200 ppm [6] | inhibition at 200 ppm [7]

COc1ccnc(C(=O)N[C@@H](C)C(=O)OC(C)C(C)n2ccc3ccc(Cl)cc32)c1O (stereo partly drawn) [I.x.001, [2-(6-chloroindol-1-yl)-1-methyl-propyl] (2S)-2-[(3-hydroxy-4-methoxy-pyridine-2-carbonyl)amino]propanoate]
≥ 80%: inhibition at 200 ppm [1] | inhibition at 200 ppm [3] | pest or weed control at 200 ppm [5] | inhibition at 200 ppm [6] | inhibition at 200 ppm [7]

COc1ccnc(C(=O)N[C@@H](C)C(=O)OC(C)C(C)n2ccc3ccc(C(F)(F)F)cc32)c1O (stereo partly drawn) [I.z.001, [1-methyl-2-[6-(trifluoromethyl)indol-1-yl]propyl] (2S)-2-[(3-hydroxy-4-methoxy-pyridine-2-carbonyl)amino]propanoate]
≥ 80%: inhibition at 200 ppm [1] | inhibition at 200 ppm [2] | inhibition at 200 ppm [3] | pest or weed control at 200 ppm [4] | pest or weed control at 200 ppm [5] | inhibition at 200 ppm [6] | inhibition at 200 ppm [7]

From patent publication US11629138B2, “Microbiocidal picolinamide derivatives” (Syngenta Participations AG, priority 2017, dated 2023)
